Consider 1 compound from patent US20100179188A1, “NITROXIDE RADICAL AS TREATMENT FOR NEURODEGENERATION” (Office of Technology Transfer, NIH, priority 2007, published 2010).

In one experiment the test system is L-ferritin (L-Ft). Nature of the experiment: Western blot of L-ferritin in IRP2−/− embryonic fibroblasts. The experiment is classed as cell-based, mouse. The note with it: 0.3 and 1.0 mM, 16 h, with or without FAC. On the procedure:
(§1) Cells: Embryonic fibroblasts of 13-day old embryos were isolated from wild type, IRP1−/− mice and IRP2−/− mice as described in LaVaute et al. supra. Myc-tagged HEK 293 Tet-on cell line, in which IRP2 expression was inducible, was prepared and cultured as described Bourdon et al., Blood Cells Mol Dis, 31, 247-255 (2003). Erythroblasts were harvested from bone marrow and purified as described in Cooperman et al., Blood, 106, 1084-1091 (2005).
(§2) Western blotting and antibodies: Protein analysis was carried out as described in LaVaute et al., supra. Equal amounts of protein (20-40 μg/lane) were separated on 13% SDSPAGE and transferred to nitrocellulose membranes. The membrane was blocked with 5% non-fat milk, 0.1% Triton X-100 in PBS and probed at RT in the same blocking buffer. IRP1 antibody was prepared against purified hIRP1 and used at 1:5000 dilution. L-ferritin antibody was raised in rabbit from L-ferritin protein purified from mouse livers. […]
(§3) To study the effect of Tempo1 on the IRE-binding activity of IRP1, IRP2−/− embryonic fibroblasts that were maintained in culture supplemented with 0, 0.3 and 1.0 mM Tempo1, with or without ferric ammonium citrate (FAC), for 16 h. […] Quantification was performed with the IQMac (IRP1 activity) or NIH Image (protein levels) program. Error bars represent the standard deviation calculated from the results of two different sets of experiments.
For orientation: A western blot detects proteins with antibodies after separation by electrophoresis.

Experiment [1] has as its system IRP1. The experiment in a line: Western blot of IRP1 protein in IRP2−/− embryonic fibroblasts. The experiment is classed as cell-based, mouse. The note with it: 0.3 and 1.0 mM, 16 h. On the procedure: as §1, §2, §3
Experiment [2] has as its target T1, IRP1 (Mus musculus, UniProt P28271).
T1 sequence (P28271 1-889): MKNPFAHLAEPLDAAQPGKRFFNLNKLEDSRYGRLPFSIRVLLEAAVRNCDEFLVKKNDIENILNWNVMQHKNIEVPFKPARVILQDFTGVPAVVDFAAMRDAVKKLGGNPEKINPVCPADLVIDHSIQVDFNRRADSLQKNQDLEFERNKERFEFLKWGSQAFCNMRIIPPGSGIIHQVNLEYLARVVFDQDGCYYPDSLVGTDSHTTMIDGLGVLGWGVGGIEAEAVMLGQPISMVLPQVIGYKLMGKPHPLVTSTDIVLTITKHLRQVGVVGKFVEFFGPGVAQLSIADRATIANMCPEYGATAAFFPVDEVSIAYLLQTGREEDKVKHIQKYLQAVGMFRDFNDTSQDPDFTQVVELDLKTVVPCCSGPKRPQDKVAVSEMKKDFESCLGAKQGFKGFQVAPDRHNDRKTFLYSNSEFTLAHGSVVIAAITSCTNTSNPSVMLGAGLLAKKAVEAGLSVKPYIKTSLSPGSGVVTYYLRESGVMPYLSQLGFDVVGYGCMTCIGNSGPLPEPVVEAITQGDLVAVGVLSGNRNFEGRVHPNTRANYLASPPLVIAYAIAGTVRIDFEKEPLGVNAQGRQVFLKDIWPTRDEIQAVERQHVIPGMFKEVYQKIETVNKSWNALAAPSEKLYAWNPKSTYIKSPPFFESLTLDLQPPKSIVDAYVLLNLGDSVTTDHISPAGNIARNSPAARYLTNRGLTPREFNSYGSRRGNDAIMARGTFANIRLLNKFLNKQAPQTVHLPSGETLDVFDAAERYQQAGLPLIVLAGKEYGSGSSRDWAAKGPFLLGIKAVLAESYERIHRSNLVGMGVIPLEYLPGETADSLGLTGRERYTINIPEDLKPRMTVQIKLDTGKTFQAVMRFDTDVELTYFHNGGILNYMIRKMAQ
The experiment in a line: Gel-shift of IRP1 in wild type and IRP2−/− mouse embryonic fibroblasts after Tempo1 or DFO and washout. The experiment is classed as cell-based. Details: Embryonic fibroblasts of 13-day old embryos were isolated from wild type, IRP1−/− mice and IRP2−/− mice; endogenous in cells; host or cells: mouse embryonic fibroblasts (wild type and IRP2−/−). On the procedure:
as §1
RNA mobility shift assays: Gel retardation assays were performed as described in Meyron-Holtz et al., EMBO J, 23, 386-395 (2004). Tissue lysates were prepared in an anaerobic chamber as described above in oxygen-depleted lysis buffer containing 10 mM HEPES (pH 7.2), 3 mM MgC12, 40 mM KCl, 5% glycerol, 0.2% Nonidet P-40, 5 mM DTT, 1 mM AEBSF, 10 μg/ml. Leupeptin and complete TM EDTA free protease inhibitor cocktail (Roche Applied Science, Indiana). Lysate (x μl) containing 10 μg of total protein was added to (12.5−x) μl of bandshift buffer containing 25 mM Tris-HCl (pH 7.5) and 40 mM KCl. The samples were incubated for 5 min at room temperature (RT) with 12.5 μl of a reaction cocktail containing 20% glycerol, 0.2 U/μl Super RNAsine (Ambion, Tex.), 0.6 μg/μl yeast t-RNA, 5 mM DTT and 20 nM 32P-labelled IRE from human ferritin H-chain gene in 25 mM Tris-HCl (pH 7.5) and 40 mM KCl. A measure of 20 μl of this reaction mixture was loaded into a 10% acrylamide/TBE gel, which was run at 200 V for 2.15 h, and then the gel was fixed, dried and exposed for autoradiography.
To determine whether the effect of Tempo1 on IRP1 activity was kinetically consistent with oxidative disassembly of the iron sulfur cluster, the effect of Tempo1 on aconitase activity was compared to that of the iron chelator, deferiprone (DFO), which activates IRE-binding activity of IRP1 by limiting de novo synthesis and repair of the iron sulfur cluster in IRP1. […] Recovery of aconitase activity was assessed in wild type and IRP2−/− cells.

Take `CC1(C)CC(O)CC(C)(C)N1[O]` [Tempo1]: the ferritin levels result with L-ferritin (L-Ft) is given as “decreased”. Further, the IRP1 levels result in the experiment on IRP1 [1] is reported as “unchanged”. The “time to reversal of the activation of IRE-binding activity after removal” value on IRP1 [2] (mouse embryonic fibroblasts, 16 hours treatment, then fresh unsupplemented media) was ≤ 2 h. Further, the “IRE-binding activity of IRP1” value on IRP1 [2] (wild type and IRP2−/− mouse embryonic fibroblasts treated 16 hours) is listed as “activated”.
